Literature values in patent publication US8658806B2, “Process for preparing optically active antrocin” (Deyew Biotech Corp., priority 2011, dated 2014).

Tested on: MDA-MB-231 cells
Details: from Rao et al., Chem. Res. Toxicol. 2011, 24, 238-245, read-out: IC50 value against MDA-MB-231 cells of metastatic breast cancer

C=C1CC[C@H]2C(C)(C)CCC[C@@]23C(=O)OC[C@@H]13 [antrocin]
IC50: 600 nM
